The text below walks through data of article PMC9681850, “Structural basis of synthetic agonist activation of the nuclear receptor REV-ERB” (Nature Communications, 2022).

The term Ki denotes a dissociation constant, usually derived from enzyme kinetics or from competition with a known ligand.

One series has as its target GR (Homo sapiens, UniProt P04150). Description: Gal4-UAS reporter assay for nuclear receptor specificity. Format: cell-based. To be noted: Gal4 DBD-NR, HEK293 cells, 10 µM. The text has this:
(§1) We assessed the specificity of STL1267 using both in house nuclear receptor Gal4-NR reporter assays and the NIMH Psychoactive Drug Screening Program (PDSP) assays. We assessed the specificity of STL1267 in the PDSP’s radioligand displacement assays, screening for binding to off-target GPCRs, ion channels, transporters, and other drug targets (Table S1). Of the 43 targets assessed in this panel, we observed no detectable binding in 41 of them. […] Additional assessment in serotonin transporter and kappa opioid receptor activity in a functional assay may be warranted to determine absolute specificity.
(§2) Receptor RLBA Ki Receptor activity […]
(§3) HEK293 cells transfected with Gal4-UAS l uc i f eras e and […]

The next series has as its target FXR (Homo sapiens, UniProt Q96RI1). The description is as above. Format: cell-based. The following applies: Gal4 DBD-NR, HEK293 cells, 10 µM.
From the text: as §1, §2, §3

The target in the next series is RXRα (Homo sapiens, UniProt P19793). The description is as above. Format: cell-based. To be noted: Gal4 DBD-NR, HEK293 cells, 10 µM; RXRa.
Sequence of RXRα (P19793 227-462 limits assumed): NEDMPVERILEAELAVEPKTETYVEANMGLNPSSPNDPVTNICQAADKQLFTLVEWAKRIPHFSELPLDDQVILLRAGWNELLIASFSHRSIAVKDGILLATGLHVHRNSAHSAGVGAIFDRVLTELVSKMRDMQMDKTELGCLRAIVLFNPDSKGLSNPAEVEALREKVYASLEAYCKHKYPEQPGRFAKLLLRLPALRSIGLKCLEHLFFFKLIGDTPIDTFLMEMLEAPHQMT
From the text: as §1, §2, §3

Series [1] addresses kappa opioid receptor (KOR) (Homo sapiens, UniProt P41145). Description: PDSP radioligand binding assay. To be noted: secondary full displacement curve, read-out: RLBA Ki.
From the text: as §1, with “specificity. […]” for “specificity.”
(§4) Receptor RLBA Ki Receptor activity
(§5) Suppl ementary Tabl e 1. Speci fi ci ty of STL1267. […]

The target in series [2] is serotonin transporter (SERT) (Homo sapiens, UniProt P31645). Description: PDSP radioligand binding assay. To be noted: secondary full displacement curve, read-out: RLBA Ki.
Sequence of serotonin transporter (SERT) (P31645 whole entry, species assumed): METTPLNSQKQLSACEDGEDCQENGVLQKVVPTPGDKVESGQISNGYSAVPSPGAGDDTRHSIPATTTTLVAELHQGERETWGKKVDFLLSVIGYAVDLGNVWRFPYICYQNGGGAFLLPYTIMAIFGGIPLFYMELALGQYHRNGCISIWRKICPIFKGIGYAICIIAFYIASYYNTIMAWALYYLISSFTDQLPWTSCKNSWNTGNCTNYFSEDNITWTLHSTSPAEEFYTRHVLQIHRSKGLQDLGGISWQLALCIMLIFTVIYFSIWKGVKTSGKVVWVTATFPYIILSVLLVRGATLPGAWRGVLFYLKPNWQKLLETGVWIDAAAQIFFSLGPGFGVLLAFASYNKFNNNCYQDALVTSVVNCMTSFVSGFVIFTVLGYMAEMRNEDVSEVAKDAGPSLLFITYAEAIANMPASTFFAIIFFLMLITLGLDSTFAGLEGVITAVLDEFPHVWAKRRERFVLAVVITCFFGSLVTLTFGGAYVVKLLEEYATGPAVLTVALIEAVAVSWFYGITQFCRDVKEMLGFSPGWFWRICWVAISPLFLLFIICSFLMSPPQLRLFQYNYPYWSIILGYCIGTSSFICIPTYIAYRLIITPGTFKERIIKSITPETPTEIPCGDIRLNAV
From the text: as §1, with “specificity. […]” for “specificity.”
as §4, §5

A further series concerns the target PXR (Homo sapiens, UniProt O75469). Description: PXR assay. Format: cell-based. The following applies: relative to 5μM rifampicin. The text has this: We thank the reviewers for the constructive comments, and we have responded to each of the […]
Overall, this is a commendable structure-function study on the transcriptional repressor, REV-ERBα. It includes the identification of an agonist that belongs to the non-heme class of small ligands. The study combines cell-based and in vitro, in vivo, and crystallographic analyses of the ligand-receptor molecular complex.
However, as a spring-board for therapeutic drug discovery, there are a few additional issues that may need to be clarified.
1. In the HEK293 2-hybrid assay, the ERB agonists are described as activators of transcription.
Perhaps, they would be more appropriately described as 'repressors'.
We have updated the manuscript to clarify this issue. In the original manuscript, we used the following to describe how the 2-hybrid assay switches agonists from repressors to activators to allow for better resolution of activity, “This format of the assay essentially functions as a mammalian 2-hybrid assay and detects REVERB agonists as activators of transcription effectively enhancing the sensitivity of such an assay from the typical one hybrid system that detects enhancement of transcriptional repression.” […]

A further series relates to BMAL1 in HepG2 cells. Description: expression of BMAL1 by qPCR. Format: cell-based, human. To be noted: 5 μM, 24 h, single replicates (n = 4). Also on record: key: Bmal1 expression normalized to Ppia. The text has this: We next determined whether STL1267 can regulate characterized REV-ERB modulated genes in cell lines expressing REV-ERB naturally. Five micromolar doses of both drugs were used in cell-based experiments from this point on. REV-ERB is an established component of the core molecular clock repressing the expression of core clock gene Bmal1[6],[27] as well as others[28],[29]. […] In skeletal muscle, REV-ERB agonism increases the expression of a wide variety of genes important in mitochondrial function.
The human hepatocellular carcinoma cell line, HepG2 cells (ATCC HB-8065), were cultured in 10% FBS 1% L-Glu MEM at 37 °C in a humidified atmosphere of 5% CO2. Prior to RNA extraction cells were treated with either DMSO or REV-ERB agonist for 24 h. The C2C12 proliferating mouse myoblast cells (ATCC, CRL-1772) were cultured in 10% FBS DMEM at 37 °C in a humidified atmosphere of 5% CO2. Prior to RNA extraction cells were treated with either DMSO or REV-ERB agonist for 24 h. Prior to crystal violet cytotoxicity assay, cells were treated with either DMSO or REV-ERB agonist for 48 h.
Mouse tissue was homogenized using a bullet blender. DNA/protein was removed by phase separation using BCP/chloroform. The supernatant (RNA containing fraction) was collected, and RNA was precipitated using isopropanol. The RNA pellets were washed with 75% ethanol and resolubilized in RNAse free water. […]
Background: In qPCR the cycle at which signal appears reflects the starting amount.

Structures are written as SMILES. Several values for one entry are separate records, joined by “and”; a condition that tells them apart may be missing. Identical values can stand only once.

Sequence of FXR (Q96RI1 262-486 limits assumed): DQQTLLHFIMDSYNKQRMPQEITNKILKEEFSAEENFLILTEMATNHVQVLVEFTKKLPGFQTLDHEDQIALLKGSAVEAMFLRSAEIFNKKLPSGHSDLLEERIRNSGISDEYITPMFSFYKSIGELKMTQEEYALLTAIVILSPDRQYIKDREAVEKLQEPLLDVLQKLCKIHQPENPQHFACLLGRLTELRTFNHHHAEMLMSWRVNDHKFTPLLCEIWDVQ
Sequence of PXR (O75469 whole entry): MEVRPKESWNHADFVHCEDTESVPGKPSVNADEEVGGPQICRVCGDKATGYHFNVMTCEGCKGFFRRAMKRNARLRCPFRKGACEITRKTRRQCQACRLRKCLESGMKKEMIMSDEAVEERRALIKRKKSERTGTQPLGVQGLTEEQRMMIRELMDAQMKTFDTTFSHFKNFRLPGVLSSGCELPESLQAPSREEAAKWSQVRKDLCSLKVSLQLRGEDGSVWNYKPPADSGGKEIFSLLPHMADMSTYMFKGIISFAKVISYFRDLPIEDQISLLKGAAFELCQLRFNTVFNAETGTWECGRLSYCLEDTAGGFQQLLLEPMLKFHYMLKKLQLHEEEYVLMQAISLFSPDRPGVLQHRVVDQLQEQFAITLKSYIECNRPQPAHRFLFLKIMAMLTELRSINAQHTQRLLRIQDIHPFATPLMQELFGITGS
Sequence of kappa opioid receptor (KOR) (P41145 whole entry): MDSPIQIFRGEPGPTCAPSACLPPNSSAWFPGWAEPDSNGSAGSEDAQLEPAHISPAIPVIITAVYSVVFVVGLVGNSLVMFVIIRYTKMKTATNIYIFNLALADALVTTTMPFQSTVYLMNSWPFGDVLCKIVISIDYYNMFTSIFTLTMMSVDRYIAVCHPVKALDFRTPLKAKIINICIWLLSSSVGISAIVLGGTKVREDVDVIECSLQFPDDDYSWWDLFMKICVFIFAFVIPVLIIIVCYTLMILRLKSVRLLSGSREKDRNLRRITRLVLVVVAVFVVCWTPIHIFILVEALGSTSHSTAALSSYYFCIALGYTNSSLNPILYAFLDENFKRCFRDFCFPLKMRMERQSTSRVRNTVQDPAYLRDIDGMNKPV
Sequence of GR (P04150 524-777 limits assumed): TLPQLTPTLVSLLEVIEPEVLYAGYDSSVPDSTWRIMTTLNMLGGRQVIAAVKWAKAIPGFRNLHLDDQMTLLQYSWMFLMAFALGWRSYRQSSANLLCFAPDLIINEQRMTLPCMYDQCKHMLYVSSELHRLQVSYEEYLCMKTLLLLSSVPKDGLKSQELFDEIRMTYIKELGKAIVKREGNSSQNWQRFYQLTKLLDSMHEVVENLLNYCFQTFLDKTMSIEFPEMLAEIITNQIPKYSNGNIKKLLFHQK

For the compound `Clc1nnc2ccc(Oc3ccccc3-c3ccccc3)nn12` [STL1267], the activity result at GR, on FXR and at RXRα was “did not detect activity” throughout. The Ki in series [1] was 720 nM; in series [2], 2000 to 4000 nM and 2100 nM. Further, at PXR, the “activity at PXR, of the activity of 5μM rifampicin” value is recorded as 18%. Further, in the series on BMAL1 in HepG2 cells, the “Bmal1 (Fig. 2c) expression” value is “attenuated the expression and 0.5800 and 0.6760 and 0.6148 and 0.7607”.
